The source of these data is US9994617B2, “Modulation of structured polypeptide specificity” (BICYCLE THERAPEUTICS LIMITED, priority 2011, dated 2018).

Each structure is given as a SMILES string. Numbered stars: 1 amine (or outer) side, 2 acyl side, 3 side chain; on linkers, the order of the positions; unused ones are H or OH. Bridge positions count the residues as written; N and C are the ends. Square brackets hold non-standard residues; d marks the D form. Peptide text beside a SMILES is read from it. NMeW = CN[C@@H](Cc1c[nH]c2ccccc12)C(=O)O; TBMB = c1c(C[*:1])cc(C[*:3])cc1C[*:2]; NMeS = CN[C@@H](CO)C(=O)O; NMeA = CN[C@@H](C)C(=O)O

The term Ki denotes a measure of affinity in units of concentration, obtained from inhibition or displacement.

For one assay, the target named is human plasma kallikrein (hPK) (Homo sapiens, UniProt P03952). As to the kind of experiment: Enzyme inhibition assay, human plasma kallikrein.
Conditions: not given
Compound `CC(=O)N[C@H]1CSCc2cc3cc(c2)CSC[C@H](NC(=O)[C@H](CCCNC(=N)N)NC(=O)[C@H](CO)NC(=O)[C@H](Cc2c[nH]c4ccccc24)NC(=O)[C@@H]2CCCN2C(=O)[C@H](C)NC1=O)C(=O)N[C@@H](CC(C)C)C(=O)N[C@@H](Cc1c[nH]cn1)C(=O)N[C@@H](CCC(N)=O)C(=O)N[C@@H](CC(=O)O)C(=O)N[C@@H](CC(C)C)C(=O)N[C@H](C(N)=O)CSC3` [Ac-(06-34-18) Scram3] (Ac-CAPWSRCLHQDLC-NH2; linker 1-7-13 via TBMB) showed a Ki of 1890 nM. On the same count and under the same terms, the result for `CC(=O)N[C@H]1CSCc2cc3cc(c2)CSC[C@H](NC(=O)[C@@H](CCCNC(=N)N)NC(=O)[C@H](C)NC(=O)[C@@H]2CCCN2C(=O)[C@H](Cc2c[nH]c4ccccc24)NC(=O)[C@H](CO)NC1=O)C(=O)N[C@@H](CC(C)C)C(=O)N[C@@H](Cc1c[nH]cn1)C(=O)N[C@@H](CCC(N)=O)C(=O)N[C@@H](CC(=O)O)C(=O)N[C@@H](CC(C)C)C(=O)N[C@H](C(N)=O)CSC3` [Ac-(06-34-18) D-Arg5] reads 52 nM; that for `CC(=O)N[C@H]1CSCc2cc3cc(c2)CSC[C@H](NC(=O)[C@H](CCCNC(=N)N)NC(=O)[C@H](C)NC(=O)[C@H]2CCCN2C(=O)[C@H](Cc2c[nH]c4ccccc24)NC(=O)[C@H](CO)NC1=O)C(=O)N[C@@H](CC(C)C)C(=O)N[C@@H](Cc1c[nH]cn1)C(=O)N[C@@H](CCC(N)=O)C(=O)N[C@@H](CC(=O)O)C(=O)N[C@@H](CC(C)C)C(=O)N[C@H](C(N)=O)CSC3` [Ac-(06-34-18) D-Pro3], 680 nM. `CC(=O)N[C@H]1CSCc2cc3cc(c2)CSC[C@H](NC(=O)[C@H](CCCNC(N)=O)NC(=O)[C@H](C)NC(=O)[C@@H]2CCCN2C(=O)[C@H](Cc2c[nH]c4ccccc24)NC(=O)[C@H](CO)NC1=O)C(=O)N[C@@H](CC(C)C)C(=O)N[C@@H](Cc1c[nH]cn1)C(=O)N[C@@H](CCC(N)=O)C(=O)N[C@@H](CC(=O)O)C(=O)N[C@@H](CC(C)C)C(=O)N[C@H](C(N)=O)CSC3` [Ac-(06-34-18) CitS] yielded a Ki of 7860 nM. `CC(=O)N[C@H]1CSCc2cc3cc(c2)CSC[C@H](NC(=O)[C@H](CCCNC(=N)N)NC(=O)[C@H](C)NC(=O)[C@H](CCC(N)=O)NC(=O)[C@H](C)NC(=O)[C@H](CO)NC1=O)C(=O)N[C@@H](CC(C)C)C(=O)N[C@@H](Cc1c[nH]cn1)C(=O)N[C@@H](CCC(N)=O)C(=O)N[C@@H](CC(=O)O)C(=O)N[C@@H](CC(C)C)C(=O)N[C@H](C(N)=O)CSC3` [Ac-(06-34-18) A2Q3] (Ac-CSAQARCLHQDLC-NH2; linker 1-7-13 via TBMB) displayed a Ki of 15800 nM. Same read-out and setting: the result for `CC(=O)N[C@H]1CSCc2cc3cc(c2)CSC[C@@H](NC(=O)[C@H](CCCNC(=N)N)NC(=O)[C@H](C)NC(=O)[C@@H]2CCCN2C(=O)[C@H](Cc2c[nH]c4ccccc24)NC(=O)[C@H](CO)NC1=O)C(=O)N[C@@H](CC(C)C)C(=O)N[C@@H](Cc1c[nH]cn1)C(=O)N[C@@H](CCC(N)=O)C(=O)N[C@@H](CC(=O)O)C(=O)N[C@@H](CC(C)C)C(=O)N[C@H](C(N)=O)CSC3` [Ac-(06-34-18) D-Cys2] reads 234 nM. Still for that read-out and setting: the result for `CC(=O)N[C@H]1CSCc2cc3cc(c2)CSC[C@H](NC(=O)[C@H](CCCNC(=N)N)NC(=O)[C@@H](C)NC(=O)[C@@H]2CCCN2C(=O)[C@H](Cc2c[nH]c4ccccc24)NC(=O)[C@H](CO)NC1=O)C(=O)N[C@@H](CC(C)C)C(=O)N[C@@H](Cc1c[nH]cn1)C(=O)N[C@@H](CCC(N)=O)C(=O)N[C@@H](CC(=O)O)C(=O)N[C@@H](CC(C)C)C(=O)N[C@H](C(N)=O)CSC3` [Ac-(06-34-18) D-Ala4] reads 1200 nM; that for `CC(=O)N[C@H]1CSCc2cc3cc(c2)CSC[C@H](NC(=O)[C@H](CCCNC(=N)N)NC(=O)[C@@H]2CCCN2C(=O)[C@H](CO)NC(=O)[C@H](C)NC(=O)[C@H](Cc2c[nH]c4ccccc24)NC1=O)C(=O)N[C@@H](CC(C)C)C(=O)N[C@@H](Cc1c[nH]cn1)C(=O)N[C@@H](CCC(N)=O)C(=O)N[C@@H](CC(=O)O)C(=O)N[C@@H](CC(C)C)C(=O)N[C@H](C(N)=O)CSC3` [Ac-(06-34-18) Scram2] (Ac-CWASPRCLHQDLC-NH2; linker 1-7-13 via TBMB), 11400 nM; that for `CC(=O)N[C@H]1CSCc2cc3cc(c2)CSC[C@H](NC(=O)[C@H](CCCNC(=N)N)NC(=O)[C@H](C)NC(=O)[C@H](C)NC(=O)[C@H](C)NC(=O)[C@H](CO)NC1=O)C(=O)N[C@@H](CC(C)C)C(=O)N[C@@H](Cc1c[nH]cn1)C(=O)N[C@@H](CCC(N)=O)C(=O)N[C@@H](CC(=O)O)C(=O)N[C@@H](CC(C)C)C(=O)N[C@H](C(N)=O)CSC3` [Ac-(06-34-18) A2A3] (Ac-CSAAARCLHQDLC-NH2; linker 1-7-13 via TBMB), 18500 nM. On the same count and under the same terms, the same measure for `CC(=O)N[C@H]1CSCc2cc3cc(c2)CSC[C@H](NC(=O)[C@H](CCCNC(=N)N)NC(=O)[C@H](C)N(C)C(=O)[C@@H]2CCCN2C(=O)[C@H](Cc2c[nH]c4ccccc24)NC(=O)[C@H](CO)N(C)C1=O)C(=O)N[C@@H](CC(C)C)C(=O)N[C@@H](Cc1c[nH]cn1)C(=O)N[C@@H](CCC(N)=O)C(=O)N[C@@H](CC(=O)O)C(=O)N[C@@H](CC(C)C)C(=O)N[C@H](C(N)=O)CSC3` [Ac-(06-34-18) NMeSer1, NMeAla4] (Ac-C[NMeS]WP[NMeA]RCLHQDLC-NH2; linker 1-7-13 via TBMB): 444 nM.

`C[C@H](N)C(=O)N[C@H]1CSCc2cc3cc(c2)CSC[C@H](NC(=O)[C@H](CC(N)=O)NC(=O)[C@H](CC(N)=O)NC(=O)[C@H](Cc2ccc(O)cc2)NC(=O)CNC(=O)CNC1=O)C(=O)N[C@@H](CCCNC(=N)N)C(=O)N[C@@H](C)C(=O)N[C@@H](Cc1ccccc1)C(=O)N[C@@H](CO)C(=O)N[C@@H](Cc1ccc(O)cc1)C(=O)N[C@H](C(=O)N[C@@H](C)C(N)=O)CSC3` [Peptide 1F7] (H-ACGGYNNCRAFSYCA-NH2; linker 2-8-14 via TBMB) registered a Ki of 2.2 nM. Still for that read-out and setting: the same measure for `CC(=O)N[C@H]1CSCc2cc3cc(c2)CSC[C@H](NC(=O)[C@H](CCCNC(=N)N)NC(=O)[C@H](C)NC(=O)[C@@H]2CCCN2C(=O)[C@H](Cc2c[nH]c4ccccc24)N(C)C(=O)[C@H](CO)NC1=O)C(=O)N[C@@H](CC(C)C)C(=O)N[C@@H](Cc1c[nH]cn1)C(=O)N[C@@H](CCC(N)=O)C(=O)N[C@@H](CC(=O)O)C(=O)N[C@@H](CC(C)C)C(=O)N[C@H](C(N)=O)CSC3` [Ac-(06-34-18) NMeTrp2] (Ac-CS[NMeW]PARCLHQDLC-NH2; linker 1-7-13 via TBMB): 228 nM; for `CC(=O)N[C@H]1CSCc2cc3cc(c2)CSC[C@H](NC(=O)C[C@H](CCCNC(=N)N)NC(=O)[C@H](C)NC(=O)[C@@H]2CCCN2C(=O)[C@H](Cc2c[nH]c4ccccc24)NC(=O)[C@H](CO)NC1=O)C(=O)N[C@@H](CC(C)C)C(=O)N[C@@H](Cc1c[nH]cn1)C(=O)N[C@@H](CCC(N)=O)C(=O)N[C@@H](CC(=O)O)C(=O)N[C@@H](CC(C)C)C(=O)N[C@H](C(N)=O)CSC3` [Ac-(06-34-18) βhomoArg5]: 8.2 nM.

On to `CC(=O)N[C@H]1CSCc2cc3cc(c2)CSC[C@H](NC(=O)[C@H](C)NC(=O)[C@@H]2CCCN2C(=O)[C@H](Cc2c[nH]c4ccccc24)NC(=O)[C@H](CO)NC1=O)C(=O)N[C@@H](CC(C)C)C(=O)N[C@@H](Cc1c[nH]cn1)C(=O)N[C@@H](CCC(N)=O)C(=O)N[C@@H](CC(=O)O)C(=O)N[C@@H](CC(C)C)C(=O)N[C@H](C(N)=O)CSC3` [Ac-(06-34-18) Δ Arg5] (Ac-CSWPACLHQDLC-NH2; linker 1-6-12 via TBMB), for which the Ki is above 100000 nM.

Staying with this assay, now noted: versus Ac-06-34-18(TMB)-NH2.
As to `CC(=O)N[C@H]1CSCc2cc3cc(c2)CSC[C@H](NC(=O)[C@@H](CCCNC(=N)N)NC(=O)[C@H](C)NC(=O)[C@@H]2CCCN2C(=O)[C@H](Cc2c[nH]c4ccccc24)NC(=O)[C@H](CO)NC1=O)C(=O)N[C@@H](CC(C)C)C(=O)N[C@@H](Cc1c[nH]cn1)C(=O)N[C@@H](CCC(N)=O)C(=O)N[C@@H](CC(=O)O)C(=O)N[C@@H](CC(C)C)C(=O)N[C@H](C(N)=O)CSC3` [Ac-(06-34-18) D-Arg5], the “fold reduction in affinity to kallikrein compared to wildtype peptide” value is on record as 300 fold. On the same count and under the same terms, the result for `CC(=O)N[C@H]1CSCc2cc3cc(c2)CSC[C@H](NC(=O)[C@H](CCCNC(=N)N)NC(=O)[C@@H](C)NC(=O)[C@@H]2CCCN2C(=O)[C@H](Cc2c[nH]c4ccccc24)NC(=O)[C@H](CO)NC1=O)C(=O)N[C@@H](CC(C)C)C(=O)N[C@@H](Cc1c[nH]cn1)C(=O)N[C@@H](CCC(N)=O)C(=O)N[C@@H](CC(=O)O)C(=O)N[C@@H](CC(C)C)C(=O)N[C@H](C(N)=O)CSC3` [Ac-(06-34-18) D-Ala4] reads 7000 fold.
